This note sets out measurements from patent publication US20150328109A1, “DERMAL COMPOSITIONS CONTAINING UNNATURAL HYGROSCOPIC AMINO ACIDS” (MEDPHARM LIMITED, priority 2012, published 2015).

Series [1] deals with Normal RHE tissue. As to the kind of experiment: Tissue viability (MTT) of normal RHE tissue during 6 day treatment. The format is cell-based, human. The following applies: 10% w/v, n = 1. As for the experimental part:
In this investigation two types of RHE tissues were used, which were healthy and psoriatic tissue sourced from the MatTek Corporation (Ashland, Mass.). For simplicity the protocol below refers to both tissue types as RHE tissues and all media as assay medium as both tissues were treated in the same manner. The only exception was that two different types of media were required for the different types of tissue (healthy and psoriatic tissues).
• (i) At the end of the equilibration period, the media for each well was removed then the tissues were lifted and placed on culture stands and fresh pre-warmed (37° C.) assay medium (5 mL) was added to the well. • (ii) Using a positive displacement pipette, the test solutions 10% w/v, N-H-S(N-hydroxyserine) in water, […], N-H-G (N-hydroxyglycine) in water, 10% w/v, L-h-S (L-homoserine) in water and 10% w/v, combination 1:1:1 (N-H-S:N-H-G: L-h-S) in water were dispensed (50±0.5 μL) onto the top of the RHE tissue. The solutions or controls were then distributed over the surface of the RHE tissues using a sterile glass rod. • (iii) The lid was placed on the well plate containing the RHE tissue and the tissues were returned to the incubator (37° C., 5% CO2) 48 h between applications.
• (i) Every 48 h culture media for the RHE tissues was removed from the 6 well plates and transferred into tubes stored (−20° C.) for cytokine analysis. • (ii) Fresh pre-warmed (37° C.) assay medium (5 mL) was added to each tissue using an automatic pipette. • (iii) From each treatment 1 tissue was removed for viability assessment. • (iv) The RHE tissues were subsequently rinsed with 100 μL of PBS to remove the residual solution from the epidermal surface. • (v) Using a positive displacement pipette, the solutions 10% w/v, N-H-S in water, 1% w/v, N-H-G in water, 10% w/v, L-h-S in water and 10% w/v, combination 1:1:1 (N-H-S:N-H-G:L-h-S) were dispensed (50±0.5 μL) onto the top of the RHE tissue. The solutions or controls were then distributed over the surface of the RHE tissues using a sterile glass rod. • (vi) The lid was placed on the well plate containing the RHE tissue and the tissues were returned to the incubator (37° C., 5% CO2) 48 h between applications at t=0, 48 and 96 h.
To determine the viability of the RHE tissue post application of the solutions and controls, the following procedure was used: • (i) The required wells in 24-well plates were filled with 300 μL MTT solution and protected from light. • (ii) The tissues were removed from the post treatment incubation plates and excess solutions and controls were removed with sterile cotton swabs. • (iii) The RHE tissue was subsequently rinsed with 1000 μL of PBS five times to remove the residual solution from the epidermal surface. • (iv) The tissue from Step (iii) was blotted dry with cotton swabs. • (v) The treated tissues from Step (iv) were transferred into wells in 24-well plates pre-filled with MTT solution (300 μL). The plates were incubated for 3 h (+/−5 min) at 37° C., 5% CO2 and 95% humidified atmosphere. • (vi) The treated tissues were subsequently transferred into a new plate filled with 1 mL of extractant solution. • (vii) The plates were sealed using Parafilm® to stop evaporation and protected from light using foil before extract at 2-8° C. to minimise evaporation. • (viii) Following extraction the RHE tissue were removed from the wells and an additional 1 mL of extractant solution was added. Using a pipette the extraction solution was mixed and made visually homogenous. • (ix) The solution from Step (viii) was transferred in to n=3 wells (200 μL per well) using an automatic pipette of a 96 well plate and the optical density was measured at a wavelength of 570 nm.

In series [2] the test system is RHE tissues. As to the kind of experiment: RHE irritation assessment Method 2: Mattek's MTT effective time (ET-50) assay. The class given is cell-based, human. The following applies: for ET-50 (exposure time to reduce viability to 50% of the control): 1% w/v N-H-G in water, dosing periods 2, 6 and 24 h. An excerpt: Method 1 was used to investigate the potential for alpha-hydroxylglycine (α-H-G) and L-homoserine (L-h-S) to cause skin irritation. The protocol is primarily designed and validated for single compounds rather than solutions. Therefore to provide further insight into the potential of N-hydroxyserine and N-hydroxylglycine to cause skin irritation a second protocol was investigated using Mattek's MTT effective time (ET-50) assay which is designed to test mixtures of compounds. In addition two commercially available amino acid related compound (L-serine and glycine) were selected and tested as comparators for N-hydroxyserine and N-hydroxylglycine. […] As a general guideline, the following groupings can be used in assigning expected in vivo irritancy responses based on the ET-50 results obtained: The irritation assessment of the solutions was performed using the protocol described below. Each of the test solutions; […] Damaged tissues were discarded. • (iii) The tissue were transferred into the assay medium and incubated at 37° C., 5% CO2 until the application of the test solutions; […] The working MTT solution was prepared using the following procedure: • (i) MTT concentrate was removed from the freezer and allowed to thaw. The concentrate was diluted with the MTT diluent solution (1 mL of concentrate to 4 mL of MTT diluent solution). • (ii) MTT solution from Step (i) was centrifuged at a g-force of 300 for 5 min to remove any particulates. • (iii) The supernatant of the MTT solution from Step (ii) was stored in the dark at 4° C. for a maximum period of 24 h and used as required. […] The plates were incubated for 3 h (+/−5 min) at 37° C., 5% CO2 and 95% humidified atmosphere. • (vi) The treated tissues were subsequently transferred into a new plate filled with 1 mL of extractant solution. • (vii) The plates were sealed using Parafilm® to stop evaporation and protected from light using foil before extract at 2-8° C. to minimise evaporation. • (viii) Following extraction the RHE tissue were removed from the wells and an additional 1 mL of extractant solution was added. Using a pipette the extraction solution was mixed and made visually homogenous. • (ix) The solution from Step (viii) was transferred in to n=3 wells (200 μL per well) using an automatic pipette of a 96 well plate and the optical density was measured at a wavelength of 570 nm.

With `O=C(O)[C@H](CO)NO` [N-hydroxyserine], the “Normal RHE tissue viability as a percentage of untreated control (%)” value is reported as 83.4% in series [1] (2 days in treatments), 91.5% in series [1] (4 days in treatments) and 86.9% in series [1] (6 days in treatments). The “ET-50 (exposure time to reduce viability to 50% of the control)” value is 12 to 24 h in series [2] (10% w/v N-H-S) and 22.8 h in series [2] (10% w/v N-H-S, listed as N-H-S). Also, the “expected in vivo irritancy from ET-50” value in series [2] (10% w/v N-H-S, 1% w/v N-H-G, 10% w/v L-Serine, 10% w/v Glycine in water) was “very mild (12-24 very mild)”.
On to `O=C(O)CNO` [N-hydroxyglycine, N-Hydroxyglycine], for which the “Normal RHE tissue viability as a percentage of untreated control (%)” value worked out at 97.9% in series [1] (2 days in treatments), 91.5% in series [1] (4 days in treatments) and 93.3% in series [1] (6 days in treatments). In series [2] (dosing periods t=2, 6 and 24 h, 1% w/v N-H-G, 10% w/v L-Serine, 10% w/v Glycine), the “impact on the viability of the RHE tissues” value is listed as “no significant impact”.
